Measurements: ChEMBL document CHEMBL4706519, “Evaluation of N-phenyl-2-aminothiazoles for treatment of multi-drug resistant and intracellular Staphylococcus aureus infections” (Eur J Med Chem, 2020)
≈ marks a conversion by molar mass, not a printed value.

What was measured:
Staphylococcus aureus [1] = assay: Antibacterial activity against methicillin-resistant Staphylococcus aureus USA300 NRS384 assessed as inhibition of bacterial growth measured after 18 to 20 hrs by broth microdilution method; type: functional; details: time 18-20 hrs
Escherichia coli = assay: Antibacterial activity against Escherichia coli JW55031 harboring toIC efflux mutant assessed as inhibition of bacterial growth measured after 18 to 20 hrs by broth microdilution method; type: functional; details: time 18-20 hrs
Enterococcus faecium [2] = assay: Ratio of MBC to MIC for vancomycin-resistant Enterococcus faecium ATCC 700221 assessed as inhibition of bacterial growth measured after 18 to 20 hrs by CLSI protocol based broth microdilution method; type: functional; details: time 18-20 hrs
Enterococcus faecalis [3] = assay: Ratio of MBC to MIC for vancomycin-resistant Enterococcus faecalis ATCC 51299 assessed as inhibition of bacterial growth measured after 18 to 20 hrs by CLSI protocol based broth microdilution method; type: functional; details: time 18-20 hrs
Staphylococcus aureus [4] = assay: Ratio of MBC to MIC against methicillin-sensitive Staphylococcus aureus ATCC 6538 assessed as inhibition of bacterial growth measured after 18 to 20 hrs by CLSI broth microdilution method; type: functional; details: time 18-20 hrs
Staphylococcus aureus [5] = assay: Antibacterial activity against vancomycin-resistant Staphylococcus aureus 10 assessed as inhibition of bacterial growth measured after 18 to 20 hrs by CLSI protocol based broth microdilution method; type: functional; details: time 18-20 hrs
[6] = tested on: Staphylococcus epidermidis; assay: Ratio of MBC to MIC for methicillin-resistant Staphylococcus epidermidis NRS101 assessed as inhibition of bacterial growth measured after 18 to 20 hrs by CLSI protocol based broth microdilution method; type: functional; details: time 18-20 hrs
Staphylococcus aureus [7] = assay: Antibacterial activity against vancomycin-resistant Staphylococcus aureus 12 assessed as inhibition of bacterial growth measured after 18 to 20 hrs by CLSI protocol based broth microdilution method; type: functional; details: time 18-20 hrs
[8] = tested on: Staphylococcus epidermidis; assay: Antibacterial activity against methicillin-resistant Staphylococcus epidermidis NRS101 assessed as inhibition of bacterial growth measured after 18 to 20 hrs by CLSI protocol based broth microdilution method; type: functional; details: time 18-20 hrs
Enterococcus faecium [9] = assay: Antibacterial activity against vancomycin-resistant Enterococcus faecium ATCC 700221 assessed as inhibition of bacterial growth measured after 18 to 20 hrs by CLSI protocol based broth microdilution method; type: functional; details: time 18-20 hrs
Listeria monocytogenes = assay: Antibacterial activity against Listeria monocytogenes ATCC 19111 assessed as inhibition of bacterial growth measured after 18 to 20 hrs by CLSI protocol based broth microdilution method; type: functional; details: time 18-20 hrs
Streptococcus pneumoniae [10] = assay: Antibacterial activity against cephalosporin-resistant Streptococcus pneumoniae ATCC 51916 assessed as inhibition of bacterial growth measured after 18 to 20 hrs by CLSI protocol based broth microdilution method; type: functional; details: time 18-20 hrs
Streptococcus pneumoniae [11] = assay: Antibacterial activity against methicillin-resistant Streptococcus pneumoniae ATCC 700677 assessed as inhibition of bacterial growth measured after 18 to 20 hrs by CLSI protocol based broth microdilution method; type: functional; details: time 18-20 hrs
Staphylococcus aureus [12] = assay: Bactericidal activity against methicillin-resistant Staphylococcus aureus USA400 NRS123 assessed as log reduction in viable bacteria count at 5 times MIC incubated for 2 hrs in soy broth followed by incubation for 18 to 20 hrs on agar plate by time kill assay; type: functional; details: time 20-22 hrs
Staphylococcus aureus [13] = assay: Bactericidal activity against methicillin-resistant Staphylococcus aureus USA400 NRS123 assessed as post-antibiotic effect at 5 times MIC incubated for 2 hrs followed by compound wash-out by viable plate count method; type: functional
[14] = Cytotoxicity against human Caco-2 cells assessed as cell viability at 64 ug/ml incubated for 2 hrs by MTS assay relative to control; type: cell-based; details: at 64 µg/mL, read-out: Activity
[15] = Selectivity index, ratio of maximum non-toxic concentration for human Caco-2 cells to MIC for methicillin-resistant Staphylococcus aureus USA500 NRS385; type: toxicity
[16] = Selectivity index, ratio of maximum non-toxic concentration for human Caco-2 cells to MIC for methicillin-resistant Staphylococcus aureus USA400 NRS123; type: toxicity
[17] = Selectivity index, ratio of maximum non-toxic concentration for human Caco-2 cells to MIC for methicillin-resistant Staphylococcus aureus USA300 NRS384; type: toxicity
Staphylococcus aureus [18] = assay: Antibacterial activity against methicillin-resistant Staphylococcus aureus USA400 NRS123 infected in mouse J774 cells assessed as reduction in intracellular bacterial burden at 2 x MIC measured after 24 hrs relative to control; type: functional
Staphylococcus aureus [19] = assay: Antibacterial activity against methicillin-resistant Staphylococcus aureus USA400 NRS123 infected in mouse J774 cells assessed as reduction in intracellular bacterial burden at 4 x MIC measured after 24 hrs relative to control; type: functional
Staphylococcus aureus [20] = assay: Ratio of MIC for methicillin-resistant Staphylococcus aureus USA400 NRS123 measured after 13th passage to MIC for methicillin-resistant Staphylococcus aureus USA400 NRS123 measured after 18 to 20 hrs by broth microdilution assay; type: functional
[21] = Half life in human liver microsomes at 0.1 uM in presence of NADPH by LC/MS/MS analysis
[22] = Selectivity index, ratio of maximum non-toxic concentration for human Caco-2 cells to MIC for methicillin-resistant Staphylococcus aureus USA700 NRS386; type: toxicity
J774 = assay: Cytotoxicity against mouse J774 cells assessed as cell viability at 32 ug/ml incubated for 2 hrs by MTS assay; type: cell-based; details: j774, 2 h, dose 32 µg/ml
Staphylococcus aureus [23] = assay: Antibacterial activity against methicillin-resistant Staphylococcus aureus USA400 NRS123 infected in mouse J774 cells assessed as log reduction in intracellular bacterial burden at 2 x MIC measured after 24 hrs; type: functional
Staphylococcus aureus [24] = assay: Antibacterial activity against methicillin-resistant Staphylococcus aureus USA400 NRS123 infected in mouse J774 cells assessed as log reduction in intracellular bacterial burden at 4 x MIC measured after 24 hrs; type: functional
[25] = Half life in human liver microsomes at 0.1 uM in absence of NADPH by LC/MS/MS analysis; type: ADME, Microsome
physchem = details: phosphate-buffered saline, pH 7.4
Staphylococcus aureus [26] = assay: microbe, parasite or virus in culture; details: ATCC 6538
Staphylococcus aureus [27] = assay: microbe, parasite or virus in culture; details: NRS107
Staphylococcus aureus [28] = assay: microbe, parasite or virus in culture; details: USA400 NRS123
Staphylococcus aureus [29] = assay: microbe, parasite or virus in culture; details: USA500 NRS385
Enterococcus faecalis [30] = assay: microbe, parasite or virus in culture; details: ATCC 51299

## C/C(=N\NC(=N)N)c1ccc(Nc2nc(-c3ccc(C)cc3)cs2)cc1
Staphylococcus aureus [1]
  MIC: 2 µg/mL (≈ 5.49 µM)
Escherichia coli
  MIC: 4 µg/mL (≈ 11 µM)
Enterococcus faecium [2]
  Ratio: 1
Enterococcus faecalis [3]
  Ratio: 1
Staphylococcus aureus [4]
  Ratio: 1
Staphylococcus aureus [5]
  MBC: 2 µg/mL (≈ 5.49 µM)
  MIC: 2 µg/mL (≈ 5.49 µM)
[6]
  Ratio: 1
Staphylococcus aureus [7]
  MBC: 2 µg/mL (≈ 5.49 µM)
  MIC: 2 µg/mL (≈ 5.49 µM)
[8]
  MBC: 1 µg/mL (≈ 2.74 µM)
  MIC: 1 µg/mL (≈ 2.74 µM)
Enterococcus faecium [9]
  MBC: 4 µg/mL (≈ 11 µM)
  MIC: 2 µg/mL (≈ 5.49 µM)
Listeria monocytogenes
  MBC: 2 µg/mL (≈ 5.49 µM)
  MIC: 1 µg/mL (≈ 2.74 µM)
Streptococcus pneumoniae [10]
  MBC: 4 µg/mL (≈ 11 µM)
  MIC: 2 µg/mL (≈ 5.49 µM)
Streptococcus pneumoniae [11]
  MBC: 8 µg/mL (≈ 21.9 µM)
  MIC: 2 µg/mL (≈ 5.49 µM)
Staphylococcus aureus [12]
  Activity: 3 log10CFU/ml
Staphylococcus aureus [13]
  PAE: 6 h
[14]
  viability at 2 h, 64 ug/ml: 100%
[15]
  selectivity ratio: 16
[16]
  selectivity ratio: 16
[17]
  selectivity ratio: 16
Staphylococcus aureus [18]
  inhibition (INH): 93%
Staphylococcus aureus [19]
  inhibition (INH): 99%
Staphylococcus aureus [20]
  Ratio: 1
[21]
  half-life at 0.1 µM: 1.96 h
[22]
  selectivity ratio: 16
J774
  Activity: Non-Toxic
Staphylococcus aureus [23]
  Activity: 1.19 log10CFU/ml
Staphylococcus aureus [24]
  Activity: 2.49 log10CFU/ml
[25]
  half-life at 0.1 µM: 4.23 h
physchem
  solubility kinetic at 2 h: 26.7 µM (≈ 9.73 µg/mL)
Staphylococcus aureus [26]
  MBC: 4 µg/mL (≈ 11 µM)
  MIC: 2 µg/mL (≈ 5.49 µM)
Staphylococcus aureus [27]
  MBC: 2 µg/mL (≈ 5.49 µM)
  MIC: 2 µg/mL (≈ 5.49 µM)
Staphylococcus aureus [28]
  MBC: 2 µg/mL (≈ 5.49 µM)
  MIC: 2 µg/mL (≈ 5.49 µM)
Staphylococcus aureus [29]
  MBC: 2 µg/mL (≈ 5.49 µM)
  MIC: 2 µg/mL (≈ 5.49 µM)
Enterococcus faecalis [30]
  MBC: 4 µg/mL (≈ 11 µM)
  MIC: 2 µg/mL (≈ 5.49 µM)
